pEC50: −log10 of the molar value. Structures can show the parent of a compound that is named as a salt.

This is an account of results in US20260374754A1, “N-((ISOQUINOLIN-6-YL)METHYL)-1H-PYRAZOLE-4-CARBOXAMIDE DERIVATIVES AS PLASMA KALLIKREIN INHIBITORS FOR THE TREATMENT OF HEREDITARY ANGIODEMA” (Takeda Pharmaceutical Company Limited, priority 2022, published 2026).

Sequence of human activated kallikrein enzyme (P03952 391-638 limits assumed): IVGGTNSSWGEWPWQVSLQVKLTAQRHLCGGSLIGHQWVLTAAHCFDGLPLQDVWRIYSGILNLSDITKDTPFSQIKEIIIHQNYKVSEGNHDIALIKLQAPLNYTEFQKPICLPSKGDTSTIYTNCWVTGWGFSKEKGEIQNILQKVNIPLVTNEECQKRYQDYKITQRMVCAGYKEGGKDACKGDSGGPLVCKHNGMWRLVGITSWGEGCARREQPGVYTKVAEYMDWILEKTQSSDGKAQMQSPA
Sequence of human activated kallikrein enzyme (P03952 20-390 partner limits assumed): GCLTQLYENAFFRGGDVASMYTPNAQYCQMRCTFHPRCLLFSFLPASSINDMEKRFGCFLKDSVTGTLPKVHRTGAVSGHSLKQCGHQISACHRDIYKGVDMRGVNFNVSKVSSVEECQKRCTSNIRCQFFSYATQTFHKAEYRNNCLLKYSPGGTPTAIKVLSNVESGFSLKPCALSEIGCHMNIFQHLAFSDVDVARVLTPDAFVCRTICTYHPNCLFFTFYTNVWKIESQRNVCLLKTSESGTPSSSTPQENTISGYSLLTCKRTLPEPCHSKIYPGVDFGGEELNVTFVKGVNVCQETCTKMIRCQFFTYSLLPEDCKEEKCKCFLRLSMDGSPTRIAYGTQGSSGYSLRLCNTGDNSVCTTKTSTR

This assay addresses human activated kallikrein enzyme (Homo sapiens, UniProt P03952). Nature of the assay: Inhibition of human activated plasma kallikrein, fluorogenic PFR-AMC substrate, 500 pM enzyme format. It counts as biochemical. The settings on record: 500 pM activated kallikrein; 300 μM PFR-AMC; 30 min preincubation; 10 min room temperature; pH 7.5; read-out: Primary Dose Response Assay: Average EC50. How it is done:
Compounds were evaluated for inhibition of the human activated kallikrein enzyme in two formats of an assay employing a fluorogenic peptide substrate. In one assay format, the concentrations of reagents were as follows: 20 mM Tris pH 7.5, 1 mM EDTA, 150 mM sodium chloride, 0.1% PEG-400, 0.1% Triton X-100, 500 pM activated kallikrein enzyme, 300 μM Pro-Phe-Arg-7-amido-4-methylcoumarin (PFR-AMC) substrate. Prior to reaction initiation with substrate, enzyme and inhibitors were preincubated for 30 min at room temperature. After initiation with substrate, reactions were incubated for 10 min at room temperature and fluorescence emission at 460 nm from 380 nm excitation measured with a microplate reader. In another assay format, the concentrations of reagents were as follows: 20 mM Tris pH 7.5, 1 mM EDTA, 150 mM sodium chloride, 0.1% PEG-400, 0.1% Triton X-100, 5 pM activated kallikrein enzyme, 300 uM PFR-AMC substrate. Prior to reaction initiation with substrate, enzyme and inhibitors were preincubated for 30 min at room temperature. After initiation with substrate, reactions were incubated for 18 hr at room temperature and fluorescence emission at 460 nm from 380 nm excitation measured with a microplate reader.
Table 35 provides the results of the assay in the format with 500 pM activated kallikrein assay.
Turning to `Cc1cc2c(N)nccc2c(C)c1CNC(=O)c1cnn(Cc2ccc(Cc3nnco3)cc2)c1` [Example 44, 1-(4-((1,3,4-oxadiazol-2-yl)methyl)benzyl)-N-((1-amino-5,7-dimethylisoquinolin-6-yl)methyl)-1H-pyrazole-4-carboxamide], the pEC50 is 8.00 to 9.00.

For the molecule `CCc1cc2c(N)nccc2c(C)c1CNC(=O)c1cnn(Cc2ccccc2)c1` [Example 173, N-((1-amino-7-ethyl-5-methylisoquinolin-6-yl)methyl)-1-benzyl-1H-pyrazole-4-carboxamide], the pEC50 is 7.00 to 8.00.

Regarding `Cc1cc2c(N)nccc2c(C)c1CNc1cc(OCc2ccc(Cc3cccn(C)c3=O)cc2)ncn1` [Example 299, 3-(4-(((6-(((1-amino-5,7-dimethylisoquinolin-6-yl)methyl)amino)pyrimidin-4-yl)oxy)methyl)benzyl)-1-methylpyridin-2(1H)-one], the pEC50 is 8.00 to 9.00.

On to `Cc1cc2c(N)nccc2c(C)c1CNC(=O)c1cnn(Cc2ccc(C(F)(F)F)cc2)c1` [Example 93, N-((1-amino-5,7-dimethylisoquinolin-6-yl)methyl)-1-(4-(trifluoromethyl)benzyl)-1H-pyrazole-4-carboxamide], for which the pEC50 is 7.00 to 8.00.

Turning to `Cc1cc2c(N)nccc2c(C)c1CNC(=O)c1nnc(Cc2cn3cc(C4CC4)ccc3n2)o1` [Example 190, N-((1-amino-5,7-dimethylisoquinolin-6-yl)methyl)-5-((6-cyclopropylimidazo[1,2-a]pyridin-2-yl)methyl)-1,3,4-oxadiazole-2-carboxamide], the pEC50 was greater than 9.00.

In the case of `Cc1ccc2nc(C(C)n3cc(C(=O)NCc4c(C)cc5c(N)nccc5c4C)cn3)cn2c1` (stereo not shown) [Example 13, N-((1-amino-5,7-dimethylisoquinolin-6-yl)methyl)-1-(1-(6-methylimidazo[1,2-a]pyridin-2-yl)ethyl)-1H-pyrazole-4-carboxamide], the pEC50 was greater than 9.00.

For the molecule `Cc1cc2c(N)nccc2c(C)c1CNC(=O)c1cnn(Cc2ccc(C#N)cc2)c1` [Example 92, N-((1-amino-5,7-dimethylisoquinolin-6-yl)methyl)-1-(4-cyanobenzyl)-1H-pyrazole-4-carboxamide], the pEC50 is 7.00 to 8.00.

For the molecule `COc1c(F)cccc1Cc1ccc(Cn2cc(C(=O)NCc3c(C)cc4c(N)nccc4c3C)cn2)cc1` [Example 116, N-((1-amino-5,7-dimethylisoquinolin-6-yl)methyl)-1-(4-(3-fluoro-2-methoxybenzyl)benzyl)-1H-pyrazole-4-carboxamide], the pEC50 was 8.00 to 9.00.

With `Cc1cc2nc(Cn3cc(C(=O)NCc4c(C)cc5c(N)nccc5c4C)cn3)cn2cc1Br` [Example 135, N-((1-amino-5,7-dimethylisoquinolin-6-yl)methyl)-1-((6-bromo-7-methylimidazo[1,2-a]pyridin-2-yl)methyl)-1H-pyrazole-4-carboxamide], the pEC50 is greater than 9.00.

Turning to `Cc1cc2c(N)nccc2c(C)c1CNc1cc(OC(C)c2ccc3ncc(Cl)cc3c2)cnn1` (stereo not shown) [Example 420, 6-(((5-(1-(3-chloroquinolin-6-yl)ethoxy)pyridazin-3-yl)amino)methyl)-5,7-dimethylisoquinolin-1-amine formic acid salt], the pEC50 was greater than 9.00.

As for `Cc1ccc2ccc(Cn3cc(C(=O)NCc4c(C)cc5c(N)nccc5c4C)cn3)cc2n1` [Example 27, N-((1-amino-5,7-dimethylisoquinolin-6-yl)methyl)-1-((2-methylquinolin-7-yl)methyl)-1H-pyrazole-4-carboxamide], the pEC50 is greater than 9.00.

Regarding `Cc1cc2c(N)nccc2c(C)c1CNc1cc(OCc2ccc(Cn3cccc(C4CC4)c3=O)cc2)ncn1` [Example 303, 1-(4-(((6-(((1-amino-5,7-dimethylisoquinolin-6-yl)methyl)amino)pyrimidin-4-yl)oxy)methyl)benzyl)-3-cyclopropylpyridin-2(1H)-one, formic acid salt], the pEC50 is 8.00 to 9.00.

With `Cc1cc2c(N)nccc2c(C)c1CNC(=O)c1cnn(Cc2ccc(CCn3cccn3)cc2)c1` [Example 48, 1-(4-(2-(1H-pyrazol-1-yl)ethyl)benzyl)-N-((1-amino-5,7-dimethylisoquinolin-6-yl)methyl)-1H-pyrazole-4-carboxamide], the pEC50 is 8.00 to 9.00.

On to `Cc1cc2c(N)nccc2c(C)c1CNC(=O)c1cc(CN)nn1Cc1ccccc1` [Example 202, N-((1-amino-5,7-dimethylisoquinolin-6-yl)methyl)-3-(aminomethyl)-1-benzyl-1H-pyrazole-5-carboxamide], for which the pEC50 is less than 6.00.

Regarding `Cc1cc2c(N)nccc2c(C)c1CNc1ncccc1NCc1cn2cc(C3CC3)ccc2n1` [Example 506, N^2-((1-amino-5,7-dimethylisoquinolin-6-yl)methyl)-N^3-((6-cyclopropylimidazo[1,2-a]pyridin-2-yl)methyl)pyridine-2,3-diamine], the pEC50 is 7.00 to 8.00.

As for `Cc1cc2c(N)nccc2c(C)c1CNC(=O)c1cnn(Cc2ccc(C(C)C(=O)N(C)C)cc2)c1` (stereo not shown) [Example 119, N-((1-amino-5,7-dimethylisoquinolin-6-yl)methyl)-1-(4-(1-(dimethylamino)-1-oxopropan-2-yl)benzyl)-1H-pyrazole-4-carboxamide], the pEC50 is greater than 9.00.

For `Cc1cc2c(N)nccc2c(C)c1CNC(=O)c1cnn(Cc2ccccc2C(F)(F)F)c1` [Example 42, N-((1-amino-5,7-dimethylisoquinolin-6-yl)methyl)-1-(2-(trifluoromethyl)benzyl)-1H-pyrazole-4-carboxamide], the pEC50 is less than 6.00.

Turning to `Cc1cc2c(N)nccc2c(C)c1CNC(=O)c1cnn(Cc2cc3ccccc3o2)c1` [Example 82, N-((1-amino-5,7-dimethylisoquinolin-6-yl)methyl)-1-(benzofuran-2-ylmethyl)-1H-pyrazole-4-carboxamide], the pEC50 is 7.00 to 8.00.

`Cc1cc2c(N)nccc2c(C)c1CNc1cnnc(NCc2ccc(Cn3ccccc3=O)cc2)c1` [Example 537, 1-(4-(((5-(((1-amino-5,7-dimethylisoquinolin-6-yl)methyl)amino)pyridazin-3-yl)amino)methyl)benzyl)pyridin-2(1H)-one]: the pEC50 was greater than 9.00.

On to `Cc1cc2ccnc(NC(=O)OCc3ccccc3)c2c(C)c1CNc1cc(NCc2ccc(Cn3ccccc3=O)cc2)ncn1` [Example 248, benzyl (6,8-dimethyl-7-(((6-((4-((2-oxopyridin-1(2H)-yl)methyl)benzyl)amino)pyrimidin-4-yl)amino)methyl)isoquinolin-1-yl)carbamate], for which the pEC50 was 8.00 to 9.00.

Turning to `Cc1cc2c(N)nccc2c(C)c1CNC(=O)c1cnn(Cc2ccc(CC(=O)N3C[C@@H]4[C@@H](CO)[C@@H]4C3)cc2)c1` [Example 208, N-((1-amino-5,7-dimethylisoquinolin-6-yl)methyl)-1-(4-(2-((1R,5S,6r)-6-(hydroxymethyl)-3-azabicyclo[3.1.0]hexan-3-y1)-2-oxoethyl)benzyl)-1H-pyrazole-4-carboxamide], the negative logarithm of the EC50 (pEC50) was 7.00 to 8.00.

For `Cc1cc2c(N)nccc2c(C)c1CNC(=O)c1cnn(Cc2ccc3c(-c4ccccn4)cccc3c2)c1` [Example 114, N-((1-amino-5,7-dimethylisoquinolin-6-yl)methyl)-1-((5-(pyridin-2-yl)naphthalen-2-yl)methyl)-1H-pyrazole-4-carboxamide], the pEC50 was greater than 9.00.
